Test results: patent US20130040882A1, “USE OF FIBROBLAST GROWTH FACTOR FRAGMENTS” (NOVARTIS AG, priority 2003, published 2013)
Values joined by “and” are separate entries in the source; they are usually repeats but may differ in a detail not shown here. Equal entries are not always repeated.

Assay: Salmon calcitonin/PTS893 monkey study: haematology;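 further: haematology parameters were measured in blood collected from a peripheral vein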
Format: in vivo, cynomolgus monkeys (Macaca fascicularis)

## Leu8, Asp10, Lysll, A1a16, G1n18, Thr33, A1a34 human PTH 1-34 [PTS893, Leu8, Asp10, Lysll, A1a16, G1n18, Thr33, A1a34 human PTH 1-34 [hPTH(1-34)]]
females, d7
  Haematology L: 6.29 pg/ml and 5.87 pg/ml
  Haematology M: 0.44 nmol/l
  Haematology MCH: 18.9 ng/ml and 19.0 ng/ml
  Haematology N: 10.8 nmol/l and 5.49 nmol/l
  Haematology PCV: 0.41 mU/l and 0.43 mU/l
  Haematology PLAT: 525 nmol/l and 382 nmol/l
  Haematology RBC: 6.2 nmol/l and 6.4 nmol/l
females, d13
  Haematology E: 0.21 mUI/l and 0.29 mUI/l
  Haematology HB: 11.3
  Haematology L: 5.81 pg/ml and 5.21 pg/ml
  Haematology MCH: 19.3 ng/ml and 19.2 ng/ml
  Haematology MCHC: 28.6 pg/ml and 29.2 pg/ml
  Haematology N: 6.36 nmol/l and 4.18 nmol/l
  Haematology PCV: 0.40 mU/l and 0.39 mU/l
  Haematology PLAT: 496 nmol/l and 309 nmol/l
  Haematology RBC: 5.9 nmol/l
females, d−8 (before dosing)
  Haematology L: 3.92 pg/ml and 4.40 pg/ml
  Haematology M: 0.80 nmol/l and 0.54 nmol/l
  Haematology MCH: 19.3 ng/ml
  Haematology MCHC: 30.6 pg/ml and 30.2 pg/ml
  Haematology N: 5.34 nmol/l and 9.05 nmol/l
  Haematology PCV: 0.44 mU/l and 0.43 mU/l
  Haematology RBC: 6.9 nmol/l and 6.7 nmol/l
males, d7
  Haematology B: 0.02 G/l and 0.03 G/l
  Haematology HB: 11.3 g/dl and 11.9 g/dl
  Haematology L: 5.91 G/l and 5.30 G/l
  Haematology MCH: 17.7 pg and 20.2 pg
  Haematology MCHC: 29.3 g/dl and 30.2 g/dl
  Haematology MCV: 60 fl and 67 fl
  Haematology PCV: 0.38 l/l and 0.40 l/l
  Haematology PLAT: 456 G/l and 589 G/l
  Haematology RBC: 6.4 T/l and 5.9 T/l
  Haematology WBC: 8.4 G/l and 15.0 G/l
males, d13
  Haematology B: 0.04 G/l and 0.03 G/l
  Haematology HB: 11.7 g/dl and 11.8 g/dl
  Haematology L: 5.37 G/l and 4.86 G/l
  Haematology M: 0.27 G/l and 0.46 G/l
  Haematology MCH: 17.3 pg and 20.3 pg
  Haematology MCHC: 27.5 g/dl and 29.2 g/dl
  Haematology MCV: 63 fl and 70 fl
  Haematology PCV: 0.43 l/l and 0.41 l/l
  Haematology PLAT: 330 G/l and 452 G/l
  Haematology RBC: 6.8 T/l and 5.8 T/l
  Haematology WBC: 8.8 G/l and 11.9 G/l
males, d−6 (before dosing)
  Haematology HB: 13.6 g/dl and 13.2 g/dl
  Haematology L: 5.07 G/l and 3.99 G/l
  Haematology MCH: 18.0 pg and 20.4 pg
  Haematology MCHC: 31.5 g/dl and 33.1 g/dl
  Haematology MCV: 57 fl and 62 fl
  Haematology N: 4.45 G/l and 4.80 G/l
  Haematology PCV: 0.43 l/l and 0.40 l/l
  Haematology PLAT: 325 G/l and 459 G/l
  Haematology RBC: 7.6 T/l and 6.5 T/l
  Haematology WBC: 10.4 G/l and 9.1 G/l
